Assay results published in paper PMC10814857, “Functional Classification and Interaction Selectivity Landscape of the Human SH3 Domain Superfamily” (Cells, 2024).
Several values for one entry are separate records, joined by “and”; a condition that tells them apart may be missing. Equal values may be shown once. Read-outs that look alike come from different tables or passages of the source. Peptide text beside a SMILES is read from it.

What was measured:
Assay in all cases: Fluorescence polarization SH3 domain-PRP binding
[1] = molecular target: T1, ITSN1-5 SH3 domain (aa 1155-1214) (Homo sapiens, UniProt Q15811); settings: FP, 0.2 µM fluorescein-labeled peptide, SH3 domain 0-200 µM, Tris/HCl pH 7.5, 25 °C, quadratic fit
T1 construct: 1155-1214; GST (N); made in house; host or cells: Escherichia coli CodonPlus, Rosetta, BL21(DE3)
T1 sequence (Q15811 1155-1214): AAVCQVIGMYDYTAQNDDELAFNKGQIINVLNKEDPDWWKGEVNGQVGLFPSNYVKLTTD
Method: (§1) The interaction between fluorescein-labeled proline-rich peptides (0.2 µM) and increasing concentrations of SH3 domains (ranging from 0 to 200 µM) was measured in a buffer (containing 30 mM Tris/HCl (pH 7.5), 5 mM MgCl2, and 3 mM DTT at 25 °C) in a total volume of 200 µL using a Fluoromax 4 fluorimeter in polarization mode and a quartz glass fluorescence cuvette (Hellma Ultra-Micro Cuvette 105.250-QS, Thermo Fisher Scientific, Waltham, MA USA). Excitation was performed at 470 nm and emission was measured at 560 nm. Dissociation constants (Kd) were determined by fitting the concentration-dependent binding curve to a quadratic ligand binding equation.
(§2) Fluorescence polarization measurements were performed to determine the binding affinities of SH3 domain–PRP interaction pairs from the dot blot analysis. SH3 proteins were titrated at increasing concentrations against fluorescent PRPs, which were kept at a constant concentration of 0.2 µM. GRB2-2^W193K, which is defective in the binding of PRPs such as RP1, was used as a negative control as previously described. […] The resulting data (Figure S6) allowed the evaluation of equilibrium dissociation constants (Kd) for 45 interactions between the SH3 domains and the PRPs (Figure 2B; Table S6).
(§3) Figure S6. Interactions of the SH3 domains with fluorescent PRPs measured by fluorescence polarization.
(§4) Fluorescent peptides (0.2 µM) were titrated with increasing concentrations of the corresponding SH3 domains.
(§5) GRB2-2W193K, defective in the binding of PRPs such as RP1, was used as a negative control as previously described. The x-axis represents SH3 domain concentrations as GST fusion proteins in µM, while the y-axis represents fluorescence polarization. The equilibrium dissociation constants (Kd) for the respective measurements were determined by fitting the titration curves to a quadratic ligand-binding equation (solid lines). All Kd values are […]
(§6) Error bars are derived from the fitting errors.

[2] = molecular target: T2, SORBS1-1 SH3 domain (aa 793-852) (Homo sapiens, UniProt Q9BX66); settings: FP, 0.2 µM fluorescein-labeled peptide, SH3 domain 0-200 µM, Tris/HCl pH 7.5, 25 °C, quadratic fit
T2 construct: 793-852; GST (N); made in house; host or cells: Escherichia coli CodonPlus, Rosetta, BL21(DE3)
T2 sequence (Q9BX66 793-852): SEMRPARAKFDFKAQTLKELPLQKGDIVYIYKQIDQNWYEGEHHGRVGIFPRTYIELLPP
Method: as §1, §2, §3, §4, §5, §6

[3] = molecular target: T3, SH3GLB1 SH3 domain (aa 305-365) (Homo sapiens, UniProt Q9Y371); settings: FP, 0.2 µM fluorescein-labeled peptide, SH3 domain 0-200 µM, Tris/HCl pH 7.5, 25 °C, quadratic fit
T3 construct: 305-365; GST (N); made in house; host or cells: Escherichia coli CodonPlus, Rosetta, BL21(DE3)
T3 sequence (Q9Y371 305-365): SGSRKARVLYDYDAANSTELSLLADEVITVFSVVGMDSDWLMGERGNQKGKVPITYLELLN
Method: as §1, §2, §3, §4, §5, §6

[4] = molecular target: T4, SRC SH3 domain (aa 77-140) (Homo sapiens, UniProt P12931); settings: FP, 0.2 µM fluorescein-labeled peptide, SH3 domain 0-200 µM, Tris/HCl pH 7.5, 25 °C, quadratic fit
T4 construct: 77-140; GST (N); made in house; host or cells: Escherichia coli CodonPlus, Rosetta, BL21(DE3)
Method: as §1, §2, §3, §4, §5, §6

[5] = molecular target: T5, SNX9 SH3 domain (aa 1-62) (Homo sapiens, UniProt Q9Y5X1); settings: FP, 0.2 µM fluorescein-labeled peptide, SH3 domain 0-200 µM, Tris/HCl pH 7.5, 25 °C, quadratic fit
T5 construct: 1-62; GST (N); made in house; host or cells: Escherichia coli CodonPlus, Rosetta, BL21(DE3)
Method: as §1, §2, §3, §4, §5, §6

[6] = molecular target: T6, ITSN1-4 SH3 domain (aa 1070-1138) (Homo sapiens, UniProt Q15811); settings: FP, 0.2 µM fluorescein-labeled peptide, SH3 domain 0-200 µM, Tris/HCl pH 7.5, 25 °C, quadratic fit
T6 construct: 1070-1138; GST (N); made in house; host or cells: Escherichia coli CodonPlus, Rosetta, BL21(DE3)
T6 sequence (Q15811 1070-1138): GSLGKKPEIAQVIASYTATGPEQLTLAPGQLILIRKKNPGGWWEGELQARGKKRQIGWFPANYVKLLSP
Method: as §1, §2, §3, §4, §5, §6

[7] = molecular target: T7, RASA1 SH3 domain (aa 279–341) (Homo sapiens, UniProt P20936); settings: FP, 0.2 µM fluorescein-labeled peptide, SH3 domain 0-200 µM, Tris/HCl pH 7.5, 25 °C, quadratic fit
T7 construct: 279–341; GST (N); made in house; host or cells: Escherichia coli CodonPlus, Rosetta, BL21(DE3)
T7 sequence (P20936 279-341): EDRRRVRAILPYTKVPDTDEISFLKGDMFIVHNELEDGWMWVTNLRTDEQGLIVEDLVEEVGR
Method: as §1, §2, §3, §4, §5, §6

[8] = molecular target: T8, NCK1-1 SH3 domain (aa 2-61) (Homo sapiens, UniProt P16333); settings: FP, 0.2 µM fluorescein-labeled peptide, SH3 domain 0-200 µM, Tris/HCl pH 7.5, 25 °C, quadratic fit
T8 construct: 2-61; GST (N); made in house; host or cells: Escherichia coli CodonPlus, Rosetta, BL21(DE3)
Method: as §1, §2, §3, §4, §5, §6

[9] = molecular target: T9, RIMBP3B-1 SH3 domain (aa 832-899) (Homo sapiens, UniProt A6NNM3); settings: FP, 0.2 µM fluorescein-labeled peptide, SH3 domain 0-200 µM, Tris/HCl pH 7.5, 25 °C, quadratic fit
T9 construct: 832-899; GST (N); made in house; host or cells: Escherichia coli CodonPlus, Rosetta, BL21(DE3)
T9 sequence (A6NNM3 832-899): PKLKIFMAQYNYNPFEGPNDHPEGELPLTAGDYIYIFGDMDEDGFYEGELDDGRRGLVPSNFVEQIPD
Method: as §1, §2, §3, §4, §5, §6

[10] = molecular target: T10, SH3PXD2A-1 SH3 domain (aa 166-225) (Homo sapiens, UniProt Q5TCZ1); settings: FP, 0.2 µM fluorescein-labeled peptide, SH3 domain 0-200 µM, Tris/HCl pH 7.5, 25 °C, quadratic fit
T10 construct: 166-225; GST (N); made in house; host or cells: Escherichia coli CodonPlus, Rosetta, BL21(DE3)
T10 sequence (Q5TCZ1 166-225): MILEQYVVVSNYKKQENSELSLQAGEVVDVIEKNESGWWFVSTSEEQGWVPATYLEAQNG
Method: as §1, §2, §3, §4, §5, §6

[11] = molecular target: T11, NCK1-2 SH3 domain (aa 106-165) (Homo sapiens, UniProt P16333); settings: FP, 0.2 µM fluorescein-labeled peptide, SH3 domain 0-200 µM, Tris/HCl pH 7.5, 25 °C, quadratic fit
T11 construct: 106-165; GST (N); made in house; host or cells: Escherichia coli CodonPlus, Rosetta, BL21(DE3)
Method: as §1, §2, §3, §4, §5, §6

[12] = molecular target: T12, NCK1-3 SH3 domain (aa 190–252) (Homo sapiens, UniProt P16333); settings: NCK1-3 (wt), FP, 0.2 µM fluorescein-labeled peptide, SH3 domain 0-200 µM, Tris/HCl pH 7.5, 25 °C, quadratic fit
T12 construct: 190–252; GST (N); made in house; host or cells: Escherichia coli CodonPlus, Rosetta, BL21(DE3)
Method: as §1, §2, §3, §4, §5, §6

T4 sequence (P12931 77-140 limits assumed): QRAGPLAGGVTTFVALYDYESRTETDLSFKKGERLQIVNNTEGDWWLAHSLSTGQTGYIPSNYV
T5 sequence (Q9Y5X1 1-62): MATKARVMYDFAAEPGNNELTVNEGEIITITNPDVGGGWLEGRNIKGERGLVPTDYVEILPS

SMILES	Kd [1] [µM]	Kd [2] [µM]	Kd [3] [µM]	Kd [4] [µM]	Kd [5] [µM]	Kd [6] [µM]	Kd [7] [µM]	Kd ([8]; read-out: Kd) [µM]	Kd [9] [µM]	Kd [10] [µM]	Kd ([11]; read-out: Kd) [µM]	Kd ([12]; read-out: Kd)	Kd [8]	Kd [11]	Kd [12]
C[C@H](N)C(=O)N[C@@H](Cc1ccccc1)C(=O)N[C@@H](Cc1ccccc1)C(=O)N1CCC[C@H]1C(=O)N[C@@H](CC(N)=O)C(=O)N[C@@H](CO)C(=O)N1CCC[C@H]1C(=O)N[C@@H](CO)C(=O)N1CCC[C@H]1C(=O)N[C@@H](Cc1ccccc1)C(=O)N[C@H](C(=O)N1CCC[C@H]1C(=O)N1CCC[C@H]1C(=O)N1CCC[C@H]1C(=O)N1CCC[C@H]1C(=O)N[C@@H](CCC(N)=O)C(=O)N[C@H](C(=O)N1CCC[C@H]1C(=O)N[C@@H](CO)C(=O)N1CCC[C@H]1C(=O)N[C@@H](Cc1c[nH]cn1)C(=O)NCC(=O)N[C@H](C(=O)O)[C@@H](C)O)[C@@H](C)O)[C@@H](C)O [Peptide P7] (H-AFFPNSPSPFTPPPPQTPSPHGT-OH)	> 200	13.2	> 200	13.3	> 200	> 200	> 200	> 200	15	> 200	> 200	> 200 µM	–	–	–
CC(C)C[C@H](NC(=O)[C@@H]1CCCN1C(=O)[C@@H]1CCCN1C(=O)[C@H](CO)NC(=O)[C@@H]1CCCN1C(=O)[C@H](CC(C)C)NC(=O)[C@H](Cc1c[nH]cn1)NC(=O)[C@@H](N)CCCNC(=N)N)C(=O)N[C@H](C(=O)N[C@@H](CCC(N)=O)C(=O)O)[C@@H](C)O [Peptide P8] (H-RHLPSPPLTQ-OH; N-terminus and C-terminus assumed)	> 200	> 200	> 200	> 200	> 200	> 200	> 200	> 200	> 200	> 200	> 200	> 200 µM	–	–	–
CC[C@H](C)[C@H](N)C(=O)N[C@@H](C)C(=O)NCC(=O)N1CCC[C@H]1C(=O)N1CCC[C@H]1C(=O)N[C@H](C(=O)N1CCC[C@H]1C(=O)N1CCC[C@H]1C(=O)N[C@@H](CCCNC(=N)N)C(=O)N[C@@H](CCC(N)=O)C(=O)N[C@@H](CO)C(=O)O)C(C)C [Peptide P9] (H-IAGPPVPPRQS-OH)	> 200	> 200	> 200	> 200	> 200	> 200	> 200	> 200	> 200	> 200	> 200	9 µM and 0.9 µM	do not bind	do not bind	tightly bound
CC[C@H](C)[C@H](NC(=O)[C@H](Cc1c[nH]cn1)NC(=O)[C@@H](N)CCC(N)=O)C(=O)N1CCC[C@H]1C(=O)N[C@@H](CCCCN)C(=O)N[C@@H](CC(C)C)C(=O)N1CCC[C@H]1C(=O)N1CCC[C@H]1C(=O)N[C@@H](CCCCN)C(=O)N[C@H](C(=O)N[C@@H](Cc1ccc(O)cc1)C(=O)O)[C@@H](C)O [Peptide P10] (H-QHIPKLPPKTY-OH; N-terminus and C-terminus assumed)	> 200	> 200	> 200	> 200	> 200	> 200	> 200	> 200	> 200	> 200	> 200	> 200 µM	–	–	–

Now from value to compound:

Kd [1] [µM]	Kd [2] [µM]	Kd [3] [µM]	Kd [4] [µM]	Kd [5] [µM]	Kd [6] [µM]	Kd [7] [µM]	Kd ([8]; read-out: Kd) [µM]	Kd [9] [µM]	Kd [10] [µM]	Kd ([11]; read-out: Kd) [µM]	Kd ([12]; read-out: Kd)	Kd [8]	Kd [11]	Kd [12]	SMILES
> 200	> 200	> 200	> 200	> 200	> 200	> 200	> 200	> 200	> 200	2	24.6 µM	–	–	–	CC(C)[C@H](N)C(=O)N1CCC[C@H]1C(=O)N[C@H](C(=O)N1CCC[C@H]1C(=O)N1CCC[C@H]1C(=O)N1CCC[C@H]1C(=O)N[C@H](C(=O)N1CCC[C@H]1C(=O)N1CCC[C@H]1C(=O)N[C@@H](CCCNC(=N)N)C(=O)N[C@@H](CCCNC(=N)N)C(=O)N[C@@H](CCCNC(=N)N)C(=O)O)C(C)C)C(C)C [RP1, reference compound]
23	> 200	> 200	> 200	> 200	> 200	> 200	> 200	> 200	21	1	2.5 µM	–	–	–	CC(C)[C@H](NC(=O)[C@@H]1CCCN1C(=O)[C@@H]1CCCN1C(=O)[C@H](C)NC(=O)[C@H](CCC(=O)O)NC(=O)[C@H](CS)NC(=O)[C@@H](N)CCCNC(=N)N)C(=O)N1CCC[C@H]1C(=O)N1CCC[C@H]1C(=O)N[C@@H](CCCNC(=N)N)C(=O)N[C@@H](CCCNC(=N)N)C(=O)N[C@@H](CCC(=O)O)C(=O)N[C@@H](CCCNC(=N)N)C(=O)NCC(=O)O [RP2, reference compound] (H-RCEAPPVPPRRERG-OH)
